The NIST ThermoML archive (doi:10.1016/j.jct.2019.03.036)
± gives the expanded uncertainty stated by the source. One block for each molecule: values may come before it.

Conditions: Liquid, Ebulliometric method (Recirculating still)

vapor or sublimation pressure (463.27 K): 101.3 ± 3.6 kPa
Compound: C[S+](C)[O-] [dimethyl sulfoxide]

vapor or sublimation pressure (350.29 K): 101.3 ± 3.6 kPa
Compound: CCOC(C)=O [ethyl acetate]

vapor or sublimation pressure (374.62 K): 101.3 ± 3.6 kPa
Compound: CCCOC(C)=O [propyl ethanoate]
